# Measured values as given in patent US20260234165A1, “MACROCYCLIC COMPOUNDS, PREPARATION METHOD THEREFOR, AND USE THEREOF” (GENFLEET THERAPEUTICS (SHANGHAI) INC., priority 2004, published 2026).
# Tested on: AsPC-1 cells (KRAS G12D mutation)
# Assay: 3D cell proliferation assay (CellTiter Glo-3D), AsPC-1
# Type: cell-based, human
# Conditions: 3D cell proliferation (CellTiter Glo-3D), medium with 2% FBS, read-out: AsPC-1 AP IC50
# How it was run: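 NCI-H441 ([…] lung) and AsPC-1 (KRAS G12D pancreatic) cells, 800 per well, were seeded in RPMI-1640 with 2% FBS and dosed next day with 3.16-fold compound dilutions (0.1% DMSO). After 5 days at 37 °C, CellTiter-Glo 3D luminescence gave inhibition versus DMSO and blank; IC50 from four-parameter fit.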
row,Compound,IC50 [pM]
1,"CCn1c(-c2cc(C#CCN3C4CCC3COC4)cnc2[C@H](C)OC)c2c3cc(ccc31)-c1csc(n1)C[C@H](NC(=O)[C@H]1[C@H](C)[C@@H]1C)C(=O)N1CCC[C@H](N1)C(=O)OCC(C)(C)C2 (atropisomer, axis not shown; (Ra)) [Compound Z711, (1r,2R,3S)—N-((6^3S,4S,Z)—(Ra)-1^2-(5-(3-(3-oxa-8-azabicyclo[3.2.1]octan-8-yl)prop-1-yn-1-yl)-2-((S)-1-methoxyethyl)pyridin-3-yl)-1^1-ethyl-10,10-dimethyl-5,7-dioxo-6^1,6^2,6^3,6^4,6^5,6^6-hexahydro-1^1H-8-oxa-2(4,2)-thiazola-1(5,3)-indola-6(1,3)-pyridazinacycloundecaphane-4-yl)-2,3-dimethylcyclopropane-1-carboxamide]",300
2,"CO[C@@H](C)c1ncc(C#CCN2CCCOCC2)cc1-c1c2c3cc(ccc3n1CC(F)(F)F)-c1csc(n1)C[C@H](NC(=O)[C@H]1[C@H](C)[C@@H]1C)C(=O)N1CCC[C@H](N1)C(=O)OCC(C)(C)C2 (atropisomer, axis not shown; (Ra)) [Compound Z700, N-((6^3S,4S,Z)-1^1-(2,2,2-trifluoroethyl)-(Ra)-1^2-(2-((S)-1-methoxyethyl)-(5-(3-(1,4-oxazepan-4-yl)prop-1-yn-1-yl))-pyridin-3-yl)-10,10-dimethyl-5,7-dioxo-6^1,6^2,6^3,6^4,6^5,6^6-hexahydro-1^1H-8-oxa-2(4,2)-thiazola-1(5,3)-indola-6(1,3)-pyridazinacycloundecaphane-4-yl)-2,3-dimethylcyclopropane-1-carboxamide]",180

# Results, then the compound that gave them:
row,IC50 [pM],Compound
1,180,"CCn1c(-c2cc(C#CCN3CCOC[C@H]3C)cnc2[C@H](C)OC)c2c3cc(ccc31)-c1csc(n1)C[C@H](NC(=O)[C@H]1[C@H](C)[C@@H]1C)C(=O)N1CCCC(N1)C(=O)OCC(C)(C)C2 (atropisomer, axis not shown; (Ra)) [Compound Z813]"
2,780,"CCn1c(-c2cc(C#CCN(C)CCOC)cnc2[C@H](C)OC)c2c3cc(ccc31)-c1csc(n1)C[C@H](NC(=O)[C@H]1[C@H](C)[C@@H]1C)C(=O)N1CCC[C@H](N1)C(=O)OCC(C)(C)C2 (atropisomer, axis not shown; (Ra)) [Compound Z788]"
3,1410,"CCn1c(-c2cc(C#CCN3CCCOCC3)cnc2C(C)C)c2c3cc(ccc31)-c1csc(n1)C[C@H](NC(=O)[C@H]1[C@H](C)[C@@H]1C)C(=O)N1CCC[C@H](N1)C(=O)OCC(C)(C)C2 (atropisomer, axis not shown; (Sa)) [Compound Z811-2, (1r,2R,3S)—N-((6^3S,4S,Z)—(Sa)-1-(5-(3-(1,4-oxazepan-4-yl)prop-1-yn-1-yl)-2-isopropylpyridin-3-yl)-1^1-ethyl-10,10-dimethyl-5,7-dioxo-6^1,6^2,6^3,6^4,6^5,6^6-hexahydro-1^1H-8-oxa-2(4,2)-thiazola-1(5,3)-indola-6(1,3)-pyridazinacycloundecaphane-4-yl)-2,3-dimethylcyclopropane-1-carboxamide]"

# Same assay, conditions: Homo sapiens, ASPC1, 3D cell proliferation (CellTiter Glo-3D), medium with 2% FBS, read-out: AsPC-1 AP IC50
row,Compound,IC50 [pM]
1,"CCO[C@@H](C)c1ncc(N2CCN(CCS(C)(=O)=O)CC2)cc1-c1c2c3cc(ccc3n1CC)-c1csc(n1)C[C@H](NC(=O)[C@H]1[C@H](C)[C@@H]1C)C(=O)N1CCC[C@H](N1)C(=O)OCC1(CC1)C2 (single isomer, unassigned) [Compound Z378-1]",14100
2,"CCn1c(-c2cc(C#CCN3CCCOCC3)cnc2[C@H](C)OC)c2c3cc(ccc31)-c1csc(n1)C[C@H](NC(=O)[C@H]1[C@H](C)[C@@H]1C)C(=O)N1CCC[C@H](N1)C(=O)OCC(C)(C)C2 (single isomer, unassigned) [Compound Z504]",400
3,"CCn1c(-c2cc(C#CCN3CCC3)cnc2[C@H](C)OC)c2c3cc(ccc31)-c1csc(n1)C[C@H](NC(=O)[C@H]1[C@H](C)[C@@H]1C)C(=O)N1CCC[C@H](N1)C(=O)OCC(C)(C)C2 (single isomer, unassigned) [Compound Z554]",1180
4,"CCn1c(-c2cc(C#CCN3CCCOCC3)cnc2[C@H](C)OC)c2c3cc(ccc31)-c1csc(n1)C[C@H](NC(=O)[C@H]1C[C@@H]1C)C(=O)N1CCC[C@H](N1)C(=O)OCC(C)(C)C2 (single isomer, unassigned) [Compound Z604]",740
5,"CCn1c(-c2cc(N3CCN4CC5(CC5)OC[C@@H]4C3)cnc2[C@H](C)OC)c2c3cc(ccc31)-c1csc(n1)C[C@H](NC(=O)[C@H]1[C@H](C)[C@@H]1C)C(=O)N1CCC[C@H](N1)C(=O)OCC1(CC1)C2 (atropisomer, axis not shown; (Ra)) [Compound Z13]",5000
6,"CCn1c(-c2cc(N3CCN(CCS(C)(=O)=O)CC3)cnc2[C@H](C)OC)c2c3cc(ccc31)-c1csc(n1)C[C@H](NC(=O)[C@H]1[C@H](C)[C@@H]1C)C(=O)N1CCC[C@H](N1)C(=O)OCC1(CC1)C2 (single isomer, unassigned) [Compound Z367]",13500
7,"CCn1c(-c2cc(C#C[C@@H]3COCCN3C)cnc2[C@H](C)OC)c2c3cc(ccc31)-c1csc(n1)C[C@H](NC(=O)[C@H]1[C@H](C)[C@@H]1C)C(=O)N1CCC[C@H](N1)C(=O)OCC(C)(C)C2 (atropisomer, axis not shown; (Ra)) [Compound Z672, (1r,2R,3S)—N-((6^3S,4S,Z)-1^1-ethyl-(Ra)-1^2-(2-((S)-1-methoxyethyl)-5-(((R)-4-methylmorpholin-3-yl)ethynyl)pyridin-3-yl)-10,10-dimethyl-5,7-dioxo-6^1,6^2,6^3,6^4,6^5,6^6hexahydro-1^1H-8-oxa-2(4,2)-thiazola-1(5,3)-indola-6(1,3)-pyridazinacycloundecaphane-4-yl)-2,3-dimethylcyclopropane-1-carboxamide]",730

# Other lines, results leading:
row,IC50 [pM],Compound
1,2270,"CCn1c(-c2cc(C#CCN3CCS(=O)(=O)CC3)cnc2[C@H](C)OC)c2c3cc(ccc31)-c1csc(n1)C[C@H](Nc1nnc3cc(C)ccn13)C(=O)N1CCC[C@H](N1)C(=O)OCC(C)(C)C2 (atropisomer, axis not shown; (Ra)) [Compound Z911, (6^3S,4S,Z)—(Ra)-1^2-(5-(3-(1,1-dioxidothiomorpholino)prop-1-yn-1-yl)-2-((S)-1-methoxyethyl)pyridin-3-yl)-1^1-ethyl-10,10-dimethyl-4-((7-methyl-[1,2,4]triazolo[4,3-a]pyridin-3-yl)amino)-6^1,6^2,6^3,6^4,6^5,6^6-hexahydro-1^1H-8-oxa-2(4,2)-thiazola-1(5,3)-indola-6(1.3)-pyridazinacycloundecaphane-5,7-dione]"
2,30,"CCn1c(-c2cc(C#CCN3CCS(=O)(=O)CC3)cnc2[C@H](C)OC)c2c3cc(ccc31)-c1csc(n1)C[C@H](NC(=O)[C@H]1[C@H](C)[C@@H]1C)C(=O)N1CCC[C@H](N1)C(=O)OCC(C)(C)C2 (atropisomer, axis not shown; (Ra)) [Compound Z838, (1r,2R,3S)—N-((6^3S,4S,Z)—(Ra)-1^2-(5-(3-(1,1-dioxidothiomorpholino)prop-1-yn-1-yl)-2-((S)-1-methoxyethyl)pyridin-3-yl)-1^1-ethyl-10,10-dimethyl-5,7-dioxo-6^1,6^2,6^3,6^4,6^5,6^6-hexahydro-1^1H-8-oxa-2(4,2)-thiazola-1(5,3)-indola-6(1,3)-pyridazinacycloundecaphane-4-yl)-2,3-dimethylcyclopropane-1-carboxamide]"
3,190,"CCn1c(-c2cc(C#CCN3CCN(C)C(=O)C3)cnc2[C@H](C)OC)c2c3cc(ccc31)-c1csc(n1)C[C@H](NC(=O)[C@H]1[C@H](C)[C@@H]1C)C(=O)N1CCC[C@H](N1)C(=O)OCC(C)(C)C2 (atropisomer, axis not shown; (Ra)) [Compound Z793]"
4,2390,"CCn1c(-c2cc(C#CCN3CCC(C(F)(F)F)CC3)cnc2[C@H](C)OC)c2c3cc(ccc31)-c1csc(n1)C[C@H](NC(=O)[C@H]1[C@H](C)[C@@H]1C)C(=O)N1CCC[C@H](N1)C(=O)OCC(C)(C)C2 (atropisomer, axis not shown; (Ra)) [Compound Z778]"
5,1490,"CCn1c(-c2cc(C#CCN3CCCOCC3)cnc2[C@H](C)OC)c2c3cc(ccc31)-c1csc(n1)C[C@H](NC(=O)CC(C)C)C(=O)N1CCC[C@H](N1)C(=O)OCC(C)(C)C2 (single isomer, unassigned) [Compound Z803]"
6,340,"CCn1c(-c2cc(C#CCN3CCCN(C)CC3)cnc2[C@H](C)OC)c2c3cc(ccc31)-c1csc(n1)C[C@H](NC(=O)[C@H]1[C@H](C)[C@@H]1C)C(=O)N1CCC[C@H](N1)C(=O)OCC(C)(C)C2 (atropisomer, axis not shown; (Ra)) [Compound Z802, (1r,2R,3S)—N-((6^3S,4S,Z)-1^2-(5-(3-(4-methyl-1,4-diaza-1-yl)prop-1-yn-1-yl)-(Ra)-2-((S)-1-methoxyethyl)pyridin-3-yl)-1^1-ethyl-10,10-dimethyl-5,7-dioxo-6^1,6^2,6^3,6^4,6^5,6^6-hexahydro-1^1H-8-oxa-2(4,2)-thiazola-1(5,3)-indola-6(1,3)-pyridazinacycloundecaphane-4-yl)-2,3-dimethylcyclopropane-1-carboxamide]"
7,2820,"CCn1c(-c2cc(C#CCN3CCCOCC3)cnc2[C@H](C)OC)c2c3cc(ccc31)-c1csc(n1)C[C@H](NC(=O)CC1CC1)C(=O)N1CCC[C@H](N1)C(=O)OCC(C)(C)C2 (atropisomer, axis not shown; (Ra)) [Compound Z915]"
